The text below walks through data of patent publication US11793880B2, “Conjugates of quaternized tubulysin compounds” (Seagen Inc., priority 2015, dated 2023).

Holding throughout (format): cell-based
The subject of one assay is HL60, AML. Nature of the assay: In vitro assays - tubulysin free drugs, CellTiter-Glo growth inhibition. Conditions: Homo sapiens, HL-60, 96 h. The procedure:
(§1) In vitro assays. Cells cultured in log-phase growth were seeded for 24 h in 96-well plates containing 150 μL RPMI 1640 supplemented with 20% FBS. Serial dilutions of antibody-drug conjugates in cell culture media were prepared at 4× working concentrations; 50 μL of each dilution was added to the 96-well plates. Following addition of ADC, cells were incubated with test articles for 4 d at 37° C. After 96 h, growth inhibition was assessed by CellTiter-Glo® (Promega, Madison, WI) and luminescence was measured on a plate reader. The IC50 value, determined in triplicate, is defined here as the concentration that results in a 50% reduction in cell growth relative to untreated controls.
(§2) In vitro assays—tubulysin free drugs. Cells were treated for 96 hours with tubulysin ether analogs (40-42) or tubulysin M (7), then assessed for viability as described in the methods.
(§3) The tubulysin ester analogs (133-137) and unsaturated ether analogs (176-179) were tested in vitro for potency relative to tubulysin M (7), following a 96 hour exposure. As shown by IC50 values (nM) of Table 2, Tubulysin esters 133-136 performed comparably to tubulysin M, with similar potencies across of the cell lines.
(§4) A series of analogues of the ethyl ether tubulysin compound TubOEt (41) were synthesized on solid phase lanterns that maintain the ethyl ether substitution, while either varying the residue at the Ile position (203-215) or the Mep position (216-221). Following cleavage from the solid phase, the analogues were obtained in >85% purity and tested without further purification. The compounds were tested in vitro for potency relative to a sample of TubOEt synthesized in parallel on a lantern (41-lantern), following a 96 hour exposure, with IC5O values expressed in nM (Table 3). While in many cases an attenuation in activity was observed relative to 41-lantern, some well-tolerated substitutions were found. […] While this stereochemical preference is not observed when Ile is replaced with O-methyl threonine (207) or O-methyl allothreonine (206), bulkier substituents led to a greater differentiation. […] Replacement of the Mep residue was generally less-well tolerated.

The next assay relates to HL60/RV, MDR + AML. The description is as above. Conditions: Homo sapiens, HL-60, 96 h. The procedure: as §1, §2, §3, §4
Another assay deals with L540cy, HL. The assay is described as above. Conditions: L540cy, 96 h. The procedure: as §1, §2, §3, §4
In another assay the test system is HepG2, HCC. Nature of the assay: In vitro assays - TubOEt analogues, CellTiter-Glo growth inhibition. Conditions: Homo sapiens, Table 3, lantern-made analogues >85% purity, 96 hour exposure. The procedure: as §1, §4
The test system of a further assay is Ramos, NHL. Described as above. Conditions: Homo sapiens, Table 3, lantern-made analogues >85% purity, 96 hour exposure. The procedure: as §1, §4
Another assay relates to U266 MM. Described as above. Conditions: Homo sapiens, U-266; Table 3; lantern-made analogues >85% purity, 96 hour exposure. The procedure:
as §1, §4

In another assay the test system is Karpas299, ALCL. In words: In vitro assays - tubulysin free drugs, CellTiter-Glo growth inhibition. Conditions: Homo sapiens, KARPAS-299, 96 h, Table 1 (examples); free drug, 96 hours. The procedure: as §1, §2, §3
Another assay deals with L428, MDR + HL. The assay is described as above. Conditions: Homo sapiens, L-428, 96 h, Table 1 (examples); free drug, 96 hours. The procedure: as §1, §2, §3
[1] abbreviates: Table 3, lantern-made analogues >85% purity, 96 hour exposure.
Setting [2] is: Table 1 (examples), free drug, 96 hours.

As to `CCO[C@H](C[C@H](C(C)C)N(C)C(=O)[C@H](CC1CCCCC1)NC(=O)[C@H]1CCCCN1C)c1nc(C(=O)N[C@@H](Cc2ccccc2)C[C@H](C)C(=O)O)cs1` [Compound 213, (2S,4R)-4-(2-((1R,3R)-3-((S)-3-cyclohexyl-N-methyl-2-((R)-1-methylpiperidine-2-carboxamido)propanamido)-1-ethoxy-4-methylpentyl)thiazole-4-carboxamido)-2-methyl-5-phenylpentanoic acid], the IC50 with HL60, AML (setting [1]) is 42 nM; in the assay on HL60/RV, MDR + AML (setting [1]) it was greater than 1000 nM; in the assay with L540cy, HL (setting [1]), 20 nM; with HepG2, HCC, 70 nM; with Ramos, NHL, 10 nM; in the assay on U266 MM it was 9 nM.
As for `CC[C@H](C)[C@H](NC(=O)[C@H]1CCCCN1C)C(=O)N(C)[C@H](C[C@@H](OC)c1nc(C(=O)N[C@@H](Cc2ccccc2)C[C@H](C)C(=O)O)cs1)C(C)C` [Compound 40, (2S,4R)-4-(2-((1R,3R)-3-((2S,3S)—N,3-dimethyl-2-((R)-1-methylpiperidine-2-carboxamido)pentanamido)-1-methoxy-4-methylpentyl)thiazole-4-carboxamido)-2-methyl-5-phenylpentanoic acid], the concentration for half-maximal inhibition (IC50) in the assay on Karpas299, ALCL was 0.19 nM; with L428, MDR + HL it was 0.5 nM; in the assay on HL60, AML (setting [2]), 0.13 nM; with HL60/RV, MDR + AML (setting [2]) it was 29 nM; with L540cy, HL (Table 1 (examples), free drug), 0.12 nM.
In the case of `CCO[C@H](C[C@H](C(C)C)N(C)C(=O)[C@@H](NC(=O)[C@H]1CCCCN1C)[C@@H](C)OC)c1nc(C(=O)N[C@@H](Cc2ccccc2)C[C@H](C)C(=O)O)cs1` [Compound 207, (2S,4R)-4-(2-((1R,3R)-1-ethoxy-3-((2S,3R)-3-methoxy-N-methyl-2-((R)-1-methylpiperidine-2-carboxamido)butanamido)-4-methylpentyl)thiazole-4-carboxamido)-2-methyl-5-phenylpentanoic acid], the IC50 was 9 nM in the assay with HL60, AML (setting [1]); greater than 1000 nM with HL60/RV, MDR + AML (setting [1]); 6 nM in the assay with L540cy, HL (setting [1]); 46 nM with HepG2, HCC; 2 nM with Ramos, NHL; 2 nM in the assay on U266 MM.
On to `CCO[C@H](C[C@H](C(C)C)N(C)C(=O)[C@@H](NC(=O)[C@H]1CCCCN1C)C1Cc2ccccc2C1)c1nc(C(=O)N[C@@H](Cc2ccccc2)C[C@H](C)C(=O)O)cs1` [Compound 208, (2S,4R)-4-(2-((1R,3R)-3-((S)-2-(2,3-dihydro-1H-inden-2-yl)-N-methyl-2-((R)-1-methylpiperidine-2-carboxamido)acetamido)-1-ethoxy-4-methylpentyl)thiazole-4-carboxamido)-2-methyl-5-phenylpentanoic acid], for which the 50% inhibitory concentration (IC50) is 221 nM in the assay with HL60, AML (setting [1]); greater than 1000 nM with HL60/RV, MDR + AML (setting [1]); 58 nM with L540cy, HL (setting [1]); 250 nM in the assay with HepG2, HCC; 44 nM with Ramos, NHL; 40 nM in the assay on U266 MM.
Turning to `CCO[C@H](C[C@H](C(C)C)N(C)C(=O)C(NC(=O)[C@H]1CCCCN1C)C12CC(F)(C1)C2)c1nc(C(=O)N[C@@H](Cc2ccccc2)C[C@H](C)C(=O)O)cs1` (stereo partly drawn) [Compound 211, (2S,4R)-4-(2-((1R,3R)-1-ethoxy-3-(2-(3-fluorobicyclo[1.1.1]pentan-1-yl)-N-methyl-2-((R)-1-methylpiperidine-2-carboxamido)acetamido)-4-methylpentyl)thiazole-4-carboxamido)-2-methyl-5-phenylpentanoic acid], the IC50 with HL60, AML (setting [1]) turned out to be 5 nM; in the assay on HL60/RV, MDR + AML (setting [1]), 224 nM; in the assay with L540cy, HL (setting [1]) it was 2 nM; in the assay with HepG2, HCC, 14 nM; in the assay with Ramos, NHL it was 1 nM; in the assay on U266 MM it was 2 nM.
As to `CCO[C@H](C[C@H](C(C)C)N(C)C(=O)[C@H](CC1CC1)NC(=O)[C@H]1CCCCN1C)c1nc(C(=O)N[C@@H](Cc2ccccc2)C[C@H](C)C(=O)O)cs1` [Compound 212, (2S,4R)-4-(2-((1R,3R)-3-((S)-3-cyclopropyl-N-methyl-2-((R)-1-methylpiperidine-2-carboxamido)propanamido)-1-ethoxy-4-methylpentyl)thiazole-4-carboxamido)-2-methyl-5-phenylpentanoic acid], the IC50 with HL60, AML (setting [1]) is 8 nM; in the assay with HL60/RV, MDR + AML (setting [1]), 810 nM; in the assay with L540cy, HL (setting [1]) it was 2 nM; in the assay with HepG2, HCC it was 19 nM; in the assay with Ramos, NHL, 1 nM; in the assay with U266 MM, 1 nM.
Take `CCO[C@H](C[C@H](C(C)C)N(C)C(=O)[C@@H](NC(=O)[C@H]1CCCCN1C)[C@H](C)OC(C)(C)C)c1nc(C(=O)N[C@@H](Cc2ccccc2)C[C@H](C)C(=O)O)cs1` [Compound 214, (2S,4R)-4-(2-((1R,3R)-3-((2S,3S)-3-(tert-butoxy)-N-methyl-2-((R)-1-methylpiperidine-2-carboxamido)butanamido)-1-ethoxy-4-methylpentyl)thiazole-4-carboxamido)-2-methyl-5-phenylpentanoic acid]: the IC50 in the assay on HL60, AML (setting [1]) was 190 nM; in the assay on HL60/RV, MDR + AML (setting [1]), greater than 1000 nM; in the assay with L540cy, HL (setting [1]) it was 30 nM; in the assay with HepG2, HCC, 91 nM; in the assay on Ramos, NHL, 20 nM; with U266 MM it was 22 nM.
With `CCO[C@H](C[C@H](C(C)C)N(C)C(=O)[C@@H](NC(=O)[C@H]1CCCCN1C)C(CC)CC)c1nc(C(=O)N[C@@H](Cc2ccccc2)C[C@H](C)C(=O)O)cs1` [Compound 203, (2S,4R)-4-(2-((1R,3R)-1-ethoxy-3-((S)-3-ethyl-N-methyl-2-((R)-1-methylpiperidine-2-carboxamido)pentanamido)-4-methylpentyl)thiazole-4-carboxamido)-2-methyl-5-phenylpentanoic acid], the half-inhibitory concentration (IC50) is 8 nM in the assay with HL60, AML (setting [1]); 604 nM with HL60/RV, MDR + AML (setting [1]); 1 nM in the assay with L540cy, HL (setting [1]); 8 nM with HepG2, HCC; 0.4 nM in the assay with Ramos, NHL; 0.5 nM in the assay with U266 MM.
`CCO[C@H](C[C@H](C(C)C)N(C)C(=O)[C@@H](NC(=O)[C@H]1CCCCN1C)[C@H](C)OC)c1nc(C(=O)N[C@@H](Cc2ccccc2)C[C@H](C)C(=O)O)cs1` [Compound 206, (2S,4R)-4-(2-((1R,3R)-1-ethoxy-3-((2S,3S)-3-methoxy-N-methyl-2-((R)-1-methylpiperidine-2-carboxamido)butanamido)-4-methylpentyl)thiazole-4-carboxamido)-2-methyl-5-phenylpentanoic acid]: the IC50 in the assay on HL60, AML (setting [1]) was 16 nM; in the assay on HL60/RV, MDR + AML (setting [1]) it was greater than 1000 nM; in the assay with L540cy, HL (setting [1]), 6 nM; with HepG2, HCC, 41 nM; in the assay with Ramos, NHL, 2 nM; with U266 MM, 3 nM.
For the molecule `CCO[C@H](C[C@H](C(C)C)N(C)C(=O)[C@@H](NC(=O)[C@@H](C(C)C)N(C)C)[C@@H](C)CC)c1nc(C(=O)N[C@@H](Cc2ccccc2)C[C@H](C)C(=O)O)cs1` [Compound 220, (2S,4R)-4-(2-((3R,6S,9R,11R)-6-((S)-sec-butyl)-3,9-diisopropyl-2,8-dimethyl-4,7-dioxo-12-oxa-2,5,8-triazatetradecan-11-yl)thiazole-4-carboxamido)-2-methyl-5-phenylpentanoic acid], the IC50 in the assay on HL60, AML (setting [1]) was 299 nM; with HL60/RV, MDR + AML (setting [1]) it was greater than 1000 nM; with L540cy, HL (setting [1]), 13 nM; with HepG2, HCC, 41 nM; in the assay with Ramos, NHL it was 10 nM; in the assay with U266 MM, 10 nM.
As for `CCO[C@H](C[C@H](C(C)C)N(C)C(=O)[C@@H](NC(=O)[C@H]1CCCCN1C)[C@H](C)CC)c1nc(C(=O)N[C@@H](Cc2ccccc2)C[C@H](C)C(=O)O)cs1` [Compound 209, (2S,4R)-4-(2-((1R,3R)-3-((2S,3R)—N,3-dimethyl-2-((R)-1-methylpiperidine-2-carboxamido)pentanamido)-1-ethoxy-4-methylpentyl)thiazole-4-carboxamido)-2-methyl-5-phenylpentanoic acid], the IC50 in the assay with HL60, AML (setting [1]) is 15 nM; with HL60/RV, MDR + AML (setting [1]), greater than 1000 nM; with L540cy, HL (setting [1]), 12 nM; with HepG2, HCC, 50 nM; in the assay on Ramos, NHL, 7 nM; with U266 MM it was 8 nM.
